US20250215029A1 (Recludix Pharma, Inc., priority 2022, published 2025)

Experiments:
[1] = target: T1, Recombinant STAT3 protein (STAT3 (G127-I722)) (Homo sapiens, UniProt P40763); assay: STAT3 Fluorescence Polarization (FP) Assay; assay type: binding; settings: STAT3 (G127-I722) 25 nM, probe 5-FAM-GpYLPQTV-NH2 2 nM, 45-minute incubation; read-out: STAT3 (FP assay IC50 class)
T1 construct: Recombinant STAT3 protein (STAT3 (G127-I722))
In short: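 Displacement of a fluorescent phosphotyrosine peptide (5-FAM-GpYLPQTV-NH2, 2 nM) from 25 nM recombinant STAT3 G127-I722 was monitored by FP after 45 min at room temperature.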

[2] = target: T2, Recombinant STAT6 protein (STAT6 (W123-T658)) (Homo sapiens, UniProt P42226); assay: STAT6 Fluorescence Polarization (FP) Assay; assay type: binding; settings: STAT6 (W123-T658) 250 nM, probe 5-FAM-Ap[…]-NH2 2 nM, 45-minute incubation; read-out: STAT6 (FP assay IC50 class)
T2 construct: Recombinant STAT6 protein (STAT6 (W123-T658))
T2 sequence (P42226 123-658): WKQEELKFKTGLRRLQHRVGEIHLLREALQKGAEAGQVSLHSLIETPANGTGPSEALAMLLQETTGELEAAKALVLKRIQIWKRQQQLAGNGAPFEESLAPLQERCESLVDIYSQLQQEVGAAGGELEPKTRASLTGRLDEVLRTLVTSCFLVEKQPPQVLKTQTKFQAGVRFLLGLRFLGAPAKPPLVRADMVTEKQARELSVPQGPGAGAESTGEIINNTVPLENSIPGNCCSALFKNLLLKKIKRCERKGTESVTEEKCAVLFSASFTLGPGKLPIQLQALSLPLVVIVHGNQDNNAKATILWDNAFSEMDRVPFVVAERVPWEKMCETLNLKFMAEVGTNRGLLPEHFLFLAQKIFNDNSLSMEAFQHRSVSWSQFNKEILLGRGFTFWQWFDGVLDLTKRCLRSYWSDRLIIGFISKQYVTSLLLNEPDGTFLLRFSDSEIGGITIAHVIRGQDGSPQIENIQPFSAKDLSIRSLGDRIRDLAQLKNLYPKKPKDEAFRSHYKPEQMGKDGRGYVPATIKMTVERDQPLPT
In short: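 Serially diluted compounds received a premix of STAT6 (W123-T658, 250 nM) and 5-FAM peptide probe (2 nM) in pH 7.4 HEPES buffer containing DTT and Tween 20. Following 45 min at room temperature, FP was recorded. IC50s were fitted by nonlinear regression; values are binned A (≤300 nM), B (>300-3000 nM), C (>3-30 μM), D (>30 μM).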

T1 sequence (P40763 127-722): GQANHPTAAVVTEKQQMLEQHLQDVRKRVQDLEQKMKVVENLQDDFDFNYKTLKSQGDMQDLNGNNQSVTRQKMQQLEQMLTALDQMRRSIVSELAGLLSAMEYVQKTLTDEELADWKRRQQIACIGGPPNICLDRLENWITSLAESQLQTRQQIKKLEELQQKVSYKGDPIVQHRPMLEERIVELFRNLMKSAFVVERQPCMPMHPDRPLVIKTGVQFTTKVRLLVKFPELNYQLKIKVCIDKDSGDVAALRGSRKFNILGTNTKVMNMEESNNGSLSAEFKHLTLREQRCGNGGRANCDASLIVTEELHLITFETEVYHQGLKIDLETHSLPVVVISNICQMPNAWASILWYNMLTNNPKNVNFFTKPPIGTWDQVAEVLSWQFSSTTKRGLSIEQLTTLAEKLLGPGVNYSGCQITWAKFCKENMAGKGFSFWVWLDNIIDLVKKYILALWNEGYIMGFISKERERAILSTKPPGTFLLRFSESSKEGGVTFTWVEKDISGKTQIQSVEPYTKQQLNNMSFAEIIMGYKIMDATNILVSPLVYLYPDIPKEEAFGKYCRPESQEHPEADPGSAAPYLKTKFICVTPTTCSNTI

| Compound | IC50 [1] | IC50 [2] |
| --- | --- | --- |
| Cc1ccncc1C1CN(C(=O)[C@@H]2CC[C@@H]3CC(C)C[C@H](NC(=O)c4cc5cc(CP(=O)(O)O)ccc5s4)C(=O)N32)C1 (stereo partly drawn) [Compound 500, ((2-(((3S,6S,9aR)-8-methyl-3-(3-(4-methylpyridin-3-yl)azetidine-1-carbonyl)-5-oxooctahydro-1H-pyrrolo[1,2-a]azepin-6-yl)carbamoyl)benzo[b]thiophen-5-yl)methyl)phosphonic acid] | 0.1 to 1 µM | 3 to 30 µM |
| COC1(c2cnccc2C)CN(C(=O)[C@@H]2CC[C@@H]3CCCC[C@H](NC(=O)c4cc5cc(C(F)(F)P(=O)(O)O)ccc5s4)C(=O)N32)C1 [Compound 501, (difluoro(2-(((3S,6S,10aS)-3-(3-methoxy-3-(4-methylpyridin-3-yl)azetidine-1-carbonyl)-5-oxodecahydropyrrolo[1,2-a]azocin-6-yl)carbamoyl)benzo[b]thiophen-5-yl)methyl)phosphonic acid] | 0.1 to 1 µM | 3 to 30 µM |
| COc1ccncc1C1CN(C(=O)[C@@H]2CC[C@@H]3CCC[C@H](NC(=O)c4cc5cc(CP(=O)(O)O)ccc5s4)C(=O)N32)C1 [Compound 502, ((2-(((3S,6S,9aS)-3-(3-(4-methoxypyridin-3-yl)azetidine-1-carbonyl)-5-oxooctahydro-1H-pyrrolo[1,2-a]azepin-6-yl)carbamoyl)benzo[b]thiophen-5-yl)methyl)phosphonic acid] | 0.1 to 1 µM | 3 to 30 µM |
| CCc1ccncc1C1CN(C(=O)[C@@H]2CC[C@@H]3CCC[C@H](NC(=O)c4cc5cc(CP(=O)(O)O)ccc5s4)C(=O)N32)C1 [Compound 503, ((2-(((3S,6S,9aS)-3-(3-(4-ethylpyridin-3-yl)azetidine-1-carbonyl)-5-oxooctahydro-1H-pyrrolo[1,2-a]azepin-6-yl)carbamoyl)benzo[b]thiophen-5-yl)methyl)phosphonic acid] | 0.1 to 1 µM | 3 to 30 µM |
| Cc1c(F)cncc1C1CN(C(=O)[C@@H]2CC[C@@H]3CCC[C@H](NC(=O)c4cc5cc(CP(=O)(O)O)ccc5s4)C(=O)N32)C1 [Compound 504, ((2-(((3S,6S,9aS)-3-(3-(5-fluoro-4-methylpyridin-3-yl)azetidine-1-carbonyl)-5-oxooctahydro-1H-pyrrolo[1,2-a]azepin-6-yl)carbamoyl)benzo[b]thiophen-5-yl)methyl)phosphonic acid] | 1 to 10 µM | 3 to 30 µM |
| Cc1ccnc(F)c1C1CN(C(=O)[C@@H]2CC[C@@H]3CCC[C@H](NC(=O)c4cc5cc(CP(=O)(O)O)ccc5s4)C(=O)N32)C1 [Compound 505, ((2-(((3S,6S,9aS)-3-(3-(2-fluoro-4-methylpyridin-3-yl)azetidine-1-carbonyl)-5-oxooctahydro-1H-pyrrolo[1,2-a]azepin-6-yl)carbamoyl)benzo[b]thiophen-5-yl)methyl)phosphonic acid] | 1 to 10 µM | 3 to 30 µM |
| COc1cncc(C2CN(C(=O)[C@@H]3CC[C@@H]4CCC[C@H](NC(=O)c5cc6cc(CP(=O)(O)O)ccc6s5)C(=O)N43)C2)c1C [Compound 506, ((2-(((3S,6S,9aS)-3-(3-(5-methoxy-4-methylpyridin-3-yl)azetidine-1-carbonyl)-5-oxooctahydro-1H-pyrrolo[1,2-a]azepin-6-yl)carbamoyl)benzo[b]thiophen-5-yl)methyl)phosphonic acid] | 1 to 10 µM | 3 to 30 µM |
| Cc1cc(N(C)C)ncc1C1CN(C(=O)[C@@H]2CC[C@@H]3CCC[C@H](NC(=O)c4cc5cc(CP(=O)(O)O)ccc5s4)C(=O)N32)C1 [Compound 507, ((2-(((3S,6S,9aS)-3-(3-(6-(dimethylamino)-4-methylpyridin-3-yl)azetidine-1-carbonyl)-5-oxooctahydro-1H-pyrrolo[1,2-a]azepin-6-yl)carbamoyl)benzo[b]thiophen-5-yl)methyl)phosphonic acid] | 1 to 10 µM | 3 to 30 µM |
| O=C(N[C@H]1CCC[C@H]2CC[C@@H](C(=O)N3CCC(c4cccnc4)C3)N2C1=O)c1cc2cc(CP(=O)(O)O)ccc2s1 (stereo partly drawn) [Compound 508, ((2-(((3S,6S,9aS)-5-oxo-3-(3-(pyridin-3-yl)pyrrolidine-1-carbonyl)octahydro-1H-pyrrolo[1,2-a]azepin-6-yl)carbamoyl)benzo[b]thiophen-5-yl)methyl)phosphonic acid] | 1 to 10 µM | 3 to 30 µM |
| O=C(N[C@H]1CCCC[C@H]2CC[C@@H](C(=O)N3CCC(c4cccnc4)C3)N2C1=O)c1cc2cc(CP(=O)(O)O)ccc2s1 (stereo partly drawn) [Compound 509, ((2-(((3S,6S,10aS)-5-oxo-3-(3-(pyridin-3-yl)pyrrolidine-1-carbonyl)decahydropyrrolo[1,2-a]azocin-6-yl)carbamoyl)benzo[b]thiophen-5-yl)methyl)phosphonic acid] | 1 to 10 µM | 3 to 30 µM |
| Cc1c(C#N)cncc1C1CN(C(=O)[C@@H]2CC[C@@H]3CCC[C@H](NC(=O)c4cc5cc(CP(=O)(O)O)ccc5s4)C(=O)N32)C1 [Compound 510, ((2-(((3S,6S,9aS)-3-(3-(5-cyano-4-methylpyridin-3-yl)azetidine-1-carbonyl)-5-oxooctahydro-1H-pyrrolo[1,2-a]azepin-6-yl)carbamoyl)benzo[b]thiophen-5-yl)methyl)phosphonic acid] | 1 to 10 µM | 3 to 30 µM |
| COc1cc(C)c(C2CN(C(=O)[C@@H]3CC[C@@H]4CCC[C@H](NC(=O)c5cc6cc(CP(=O)(O)O)ccc6s5)C(=O)N43)C2)cn1 [Compound 511, ((2-(((3S,6S,9aS)-3-(3-(6-methoxy-4-methylpyridin-3-yl)azetidine-1-carbonyl)-5-oxooctahydro-1H-pyrrolo[1,2-a]azepin-6-yl)carbamoyl)benzo[b]thiophen-5-yl)methyl)phosphonic acid] | 1 to 10 µM | 3 to 30 µM |
| CN(C)c1ccncc1C1CN(C(=O)[C@@H]2CC[C@@H]3CCC[C@H](NC(=O)c4cc5cc(CP(=O)(O)O)ccc5s4)C(=O)N32)C1 [Compound 512, ((2-(((3S,6S,9aS)-3-(3-(4-(dimethylamino)pyridin-3-yl)azetidine-1-carbonyl)-5-oxooctahydro-1H-pyrrolo[1,2-a]azepin-6-yl)carbamoyl)benzo[b]thiophen-5-yl)methyl)phosphonic acid] | < 0.1 µM | 3 to 30 µM |
| O=C(N[C@H]1CCCC[C@H]2CC[C@@H](C(=O)N3CCC(O)(c4cc[nH]c(=O)c4)C3)N2C1=O)c1cc2cc(C(F)(F)P(=O)(O)O)ccc2s1 (stereo partly drawn) [Compound 513, (difluoro(2-(((3S,6S,10aS)-3-(3-hydroxy-3-(2-oxo-1,2-dihydropyridin-4-yl)pyrrolidine-1-carbonyl)-5-oxodecahydropyrrolo[1,2-a]azocin-6-yl)carbamoyl)benzo[b]thiophen-5-yl)methyl)phosphonic acid] | 0.1 to 1 µM | 0.3 to 3 µM |
| O=C(N[C@H]1CCC[C@H]2CC[C@@H](C(=O)N3CC(c4cnccc4F)C3)N2C1=O)c1cc2cc(CP(=O)(O)O)ccc2s1 [Compound 514, ((2-(((3S,6S,9aS)-3-(3-(4-fluoropyridin-3-yl)azetidine-1-carbonyl)-5-oxooctahydro-1H-pyrrolo[1,2-a]azepin-6-yl)carbamoyl)benzo[b]thiophen-5-yl)methyl)phosphonic acid] | < 0.1 µM | 3 to 30 µM |
| N#Cc1nccc(C2CN(C(=O)[C@@H]3CC[C@@H]4CCC[C@H](NC(=O)c5cc6cc(CP(=O)(O)O)ccc6s5)C(=O)N43)C2)n1 [Compound 515, ((2-(((3S,6S,9aS)-3-(3-(2-cyanopyrimidin-4-yl)azetidine-1-carbonyl)-5-oxooctahydro-1H-pyrrolo[1,2-a]azepin-6-yl)carbamoyl)benzo[b]thiophen-5-yl)methyl)phosphonic acid] | 1 to 10 µM | 3 to 30 µM |
| O=C(N[C@H]1CCCC[C@H]2CC[C@@H](C(=O)N3CC(c4cnccc4-c4ccccc4)C3)N2C1=O)c1cc2cc(C(F)(F)P(=O)(O)O)ccc2s1 [Compound 516, (difluoro(2-(((3S,6S,10aS)-5-oxo-3-(3-(4-phenylpyridin-3-yl)azetidine-1-carbonyl)decahydropyrrolo[1,2-a]azocin-6-yl)carbamoyl)benzo[b]thiophen-5-yl)methyl)phosphonic acid] | < 0.1 µM | 0.3 to 3 µM |
| O=C(N[C@H]1CCC[C@H]2CC[C@@H](C(=O)N3CC(c4cnccc4C4CC4)C3)N2C1=O)c1cc2cc(CP(=O)(O)O)ccc2s1 [Compound 517, ((2-(((3S,6S,9aS)-3-(3-(4-cyclopropylpyridin-3-yl)azetidine-1-carbonyl)-5-oxooctahydro-1H-pyrrolo[1,2-a]azepin-6-yl)carbamoyl)benzo[b]thiophen-5-yl)methyl)phosphonic acid] | 0.1 to 1 µM | 3 to 30 µM |
